Laboratory results from US8883135B2, “Crystalline form of a pyridyl-piperazinyl hepatitis C virus inhibitor” (Theravance Biopharma R&D IP, LLC, priority 2012, dated 2014).

Tests used:
[1] = Dynamic Moisture Sorption Assessment; assay type: physicochemical; settings: for deliquescence: exposed to up to about 90% relative humidity at room temperature; for change in solid form (powder diffraction pattern) after two sorption/desorption cycles: two DMS cycles, PXRD compared with the starting material
Description: Dynamic moisture sorption (DMS) measurements were performed for each crystalline form using a VTI atmospheric microbalance, SGA-100 system (VTI Corp., Hialeah, Fla. 33016). A weighed sample was used and the humidity was lowest possible value (close to 0% RH) at the start of the analysis. […] The DMS run was performed isothermally at 25° C.

[2] = test system: HCV replicon resistant mutants: genotype 1b L31V and Y93H; genotype 1a Q30R and L31V; assay: Replicon Assays Against Resistant Mutants (stably transfected Huh7 cells); assay type: cell-based; settings: Hepatitis C virus, Huh-7, read-out: pEC50 (converted)
Description: To create replicon cells with resistant mutations of interest, the mutation was first introduced into the parental plasmid by site-directed mutagenesis. Mutations in genotype 1b included L31V and Y93H. Mutations in genotype 1a included Q30R and L31V. The replicon plasmid was then linearized and in vitro transcribed to RNA. The RNA was used to stably transfect Huh7 cells by electroporation, and new cell lines were selected with 500 μg/mL G418. Potencies of test compounds against these mutant cell lines were determined as previously described above for the HCV Genotype 1b and 1a replicon assays.

[3] = test system: HCV genotype 1b replicon cell line (Huh7 cell background); assay: HCV Genotype 1b Replicon Assay; assay type: cell-based; settings: Hepatitis C virus, Huh-7, luciferase activity readout, 48 hours incubation
Source text: The HCV genotype 1b replicon cell line was obtained from Apath LLC (Brooklyn, N.Y.) (APC144; Huh7 cell background). This subgenomic replicon contains the N-terminus of the HCV core protein fused to the neomycin-resistance selectable marker. The EMCV IRES lies downstream and drives expression of humanized Renilla luciferase fused to the non-structural proteins NS3-NS5B. This cell line was used to determine compound potency using the luciferase activity readout as a measurement of compound inhibition of replicon levels.
Cells were grown at 37° C. in a 5% CO2 humidified incubator in DMEM (Invitrogen) with 10% FBS (HyClone), 1×NEAA (Invitrogen), 1× Pen-Strep (Invitrogen), and 500 μg/mL G418 (Invitrogen). On day 1 of the assay, cells were plated at 10,000 cells/well in white 96-well tissue culture plates (Costar) in 200 μL media lacking G418. […] At the end of the incubation period, media and compound were removed from the plates and the luciferase activity was determined using Promega Renilla-Glo reagents.
To analyze the data, the luciferase activity was plotted vs. the compound concentration, and EC50 values were determined from a 4-parameter robust fit model with the GraphPad Prism software package (GraphPad Software, Inc., San Diego, Calif.). Results are expressed as the negative decadic logarithm of the EC50 value, pEC50. […]

[4] = test system: HCV replicon mutants genotype 1a Y93H, M28T, and Q30E; assay: Replicon assays against resistant mutants (transient transfection, Huh-LUNET cells); assay type: cell-based; settings: Hepatitis C virus, read-out: pEC50 (converted)
Description: Potencies of test compounds against additional mutations of interest were determined using transient transfection assays. These mutants included genotype 1a Y93H, M28T, and Q30E. The mutation was first introduced into the parental plasmid by site-directed mutagenesis. The replicon plasmid was then linearized and in vitro transcribed to RNA. The RNA was used to transiently transfect Huh-LUNET cells (obtained from ReBLikon GmbH, Schriesheim, Germany) by electroporation, and the potencies of test compounds against the mutants were determined as previously described.

[5] = test system: HCV genotype 1a replicon cell line (Huh7.5 cell background); assay: HCV Genotype 1a Replicon Assay; assay type: cell-based; settings: Hepatitis C virus, NS3-specific protease activity in lysates, 48 or 72 hours incubation
Description: The HCV genotype 1a replicon cell line was obtained from Apath LLC (APC89; Huh7.5 cell background). This subgenomic replicon contains the N-terminus of the HCV core protein fused to the neomycin-resistance selectable marker. The EMCV IRES lies downstream and drives expression of the non-structural proteins NS3-NS5B. Compound potencies were determined using the NS3-specific protease activity in lysates as a measurement of compound inhibition of replicon levels.
Cells were grown at 37° C. in a 5% CO2 humidified incubator in DMEM (Invitrogen) with 10% FBS (HyClone), 1×NEAA (Invitrogen), 1× Pen-Strep (Invitrogen), and 850 μg/mL G418 (Invitrogen). On day 1 of the assay, cells were plated at 15,000 cells/well in black 96-well tissue culture plates (Costar) in 200 μL media lacking G418. […]
To determine the NS3-specific protease activity in lysates, the cells were lysed at room temperature in 50 μL/well of 50 mM Hepes pH 7.5, 150 mM NaCl, 15% Glycerol, 0.15% Triton X-100, 10 mM DTT for 20 minutes with shaking. […] Protease activity was determined by measuring fluorescence (Excitation: 340 nm; Emission: 509 nm).
To analyze the data, the fluorescence was plotted vs. the compound concentration, and EC50 values were determined from a 4-parameter robust fit model using GraphPad Prism software.

[6] = humidity range of 2% to 90% relative humidity at room temperature

| Compound | deliquescence [1] | weight gain (dynamic moisture sorption) [1, 6] | weight gain (dynamic moisture sorption) ([1]; humidity range of 2% to 90% relative humidity at room temperature, listed as Crystalline compound 1) [%] | change in solid form (powder diffraction pattern) after two sorption/desorption cycles [1] | EC50 [2] [nM] | EC50 [3] [nM] | EC50 [4] [nM] | EC50 [5] [nM] | weight gain (dynamic moisture sorption) ([1]; at 90% relative humidity during the initial adsorption segment) |
| --- | --- | --- | --- | --- | --- | --- | --- | --- | --- |
| CNC(=O)N1C[C@@H](C)N(c2ccc(C(=O)Nc3ccc(-c4ccc(-c5c[nH]c([C@@H]6CCCN6C(=O)[C@@H](NC(=O)OC)C(C)C)n5)cc4)c(OC(F)(F)F)c3)cn2)C[C@@H]1C [crystalline compound 1, Crystalline ((S)-1-{(S)-2-[4-(4′-{[6-((2R,5S)-2,5-Dimethyl-4-methylcarbamoyl-piperazin-1-yl)-pyridine-3-carbonyl]-amino}-2′-trifluoromethoxy-biphenyl-4-yl)-1H-imidazol-2-yl]-pyrrolidine-1-carbonyl}-2-methyl-propyl)-carbamic acid methyl ester] | neither crystalline compound 1 nor the anhydrous and hydrate forms of the crystalline dihydrochloride salt of compound 1 is deliquescent | about 3% | ≤ 3 | no change in form | – | – | – | – | – |
| CNC(=O)N1C[C@@H](C)N(c2ccc(C(=O)Nc3ccc(-c4ccc(-c5c[nH]c([C@@H]6CCCN6C(=O)[C@@H](NC(=O)OC)C(C)C)n5)cc4)c(OC(F)(F)F)c3)cn2)C[C@@H]1C [Compound 1, ((S)-1-{(S)-2-[4-(4′-{[6-((2R,5S)-2,5-dimethyl-4-methylcarbamoyl-piperazin-1-yl)-pyridine-3-carbonyl]-amino}-2′-trifluoromethoxy-biphenyl-4-yl)-1H-imidazol-2-yl]-pyrrolidine-1-carbonyl}-2-methyl-propyl)-carbamic acid methyl ester] | – | – | – | – | ≤ 10 | ≤ 0.01 | ≤ 10 | ≤ 0.1 | – |
| CNC(=O)N1C[C@@H](C)N(c2ccc(C(=O)Nc3ccc(-c4ccc(-c5c[nH]c([C@@H]6CCCN6C(=O)[C@@H](NC(=O)OC)C(C)C)n5)cc4)c(OC(F)(F)F)c3)cn2)C[C@@H]1C.Cl.Cl.O [monohydrate form, Crystalline ((S)-1-{(S)-2-[4-(4′-{[6-((2R,5S)-2,5-Dimethyl-4-methylcarbamoyl-piperazin-1-yl)-pyridine-3-carbonyl]-amino}-2′-trifluoromethoxy-biphenyl-4-yl)-1H-imidazol-2-yl]-pyrrolidine-1-carbonyl}-2-methyl-propyl)-carbamic acid methyl ester dihydrochloride Monohydrate Form] | neither crystalline compound 1 nor the anhydrous and hydrate forms of the crystalline dihydrochloride salt of compound 1 is deliquescent | – | – | no change in form | – | – | – | – | about 2% |
| Crystalline ((S)-1-{(S)-2-[4-(4′-{[6-((2R,5S)-2,5-Dimethyl-4-methylcarbamoyl-piperazin-1-yl)-pyridine-3-carbonyl]-amino}-2′-trifluoromethoxy-biphenyl-4-yl)-1H-imidazol-2-yl]-pyrrolidine-1-carbonyl}-2-methyl-propyl)-carbamic acid methyl ester dihydrochloride Anhydrous Form [anhydrous dihydrochloride salt] | neither crystalline compound 1 nor the anhydrous and hydrate forms of the crystalline dihydrochloride salt of compound 1 is deliquescent | about 0.8% | – | no change in form | – | – | – | – | – |
